Patent publication US20230346654A1, “Anhydrous Urea Emulsions” (BAEK CLINICAL INC., priority 2020, published 2023)
Like-named read-outs stand apart in the source and are kept apart here. Values belong to the compound of their own block, whether it stands above or below them.

Legend:
[1] = Assessment of solvents: ability to solubilize urea; details: neat solvent
[2] = stated as well-known; cited from earlier work
[3] = Assessment of solvents: gentleness or irritation on skin; details: applied to skin; 1,3-propanediol even applied neat, or at 100% concentration
Excerpt: (§1) AA refers to L-ascorbic acid. U refers to urea. % values are wt %.

[4] = Solubility of optional additional components in non-aqueous solvents; format: physicochemical
Excerpt: as §1

[5] = in most solvents; cited from earlier work
[6] = in vivo; cited from earlier work
[7] = concentrations of 0.2%; cited from earlier work

ability to solubilize urea [1]: moderate
Compound: CC(O)CO (stereo not drawn) [1,2-propanediol]
skin irritation and sensitivity [2]: inducing skin irritation and sensitivity

ability to solubilize urea [1]: moderate
Compound: OCCCCCO [1,5-pentanediol]

ability to solubilize urea [1]: moderate
Compound: OCC(O)CO [Glycerin, glycerol (1,2,3-propanetriol)]

ability to solubilize urea [1]: moderate
Compound: OCC(O)COCC(O)CO (stereo not drawn) [diglycerin]

solubility ([4]; in 1,3-propanediol): shows solubility
Compound: CC1(C)[C@@H](O[C@H]2O[C@H](C(=O)O)[C@@H](O)[C@H](O)[C@H]2O[C@@H]2O[C@H](C(=O)O)[C@@H](O)[C@H](O)[C@H]2O)CC[C@]2(C)[C@H]3C(=O)C=C4[C@@H]5C[C@@](C)(C(=O)O)CC[C@]5(C)CC[C@@]4(C)[C@]3(C)CC[C@@H]12 [glycyrrhizic acid, Glycyrrhizic acid]

The next lines start with the compound.

Compound: CCCCC(O)CO (stereo not drawn) [1,2-hexanediol]
ability to solubilize urea [1]: moderate

Compound: CC(O)CCO (stereo not drawn) [1,3-butanediol]
gentleness on skin [3]: relatively gentle on skin

Compound: OCCCO [1,3-propanediol]
gentleness on skin [3]: gentleness on skin

Compound: COc1cc(CC(C(C)=O)C(C)=O)ccc1O [Acetyl zingerone]
solubility ([4]; in 1,3 propanediol, 1,2 propanediol and 1,3 butanediol at 0.5-1%): readily soluble

Compound: O=C(O)CCCCCCCC(=O)O [AzA, Azelaic acid, reference compound]
solubility [5]: very poorly soluble
concentration that can be solubilized ([4]; in 1,3 propanediol): up to 10%
change of solubility in 1,3 propanediol ([4]; in the presence of hydroxyethyl urea): slightly increased
concentration that can be solubilized ([4]; with 10% AA, 5% U in a 1,3 propanediol base): 7.5%

Compound: CO[C@H]1CO[C@H]2[C@@H]1OC[C@H]2OC [Dimethyl isosorbide]
ability to solubilize urea [1]: very limited

Compound: CC(C)(CO)[C@@H](O)C(=O)NCCCO [Panthenol]
concentration at which inhibition of transepidermal water loss is apparent [6]: ≥ 1%

Compound: Madecassoside
ability to reduce erythema (skin redness) [7]: desirable ability to reduce erythema
solubility ([4]; at a concentration of 0.2% in 1,3 propanediol, 1,2 propanediol and 1,3 butanediol): soluble
